Here are results for 2 compounds from patent US10881645B2, “Methods for controlling blood pressure and reducing dyspnea in heart failure” (Chiesi Farmaceutici S.p.A., priority 2012, dated 2021).

The subject of series [1] is AHF patients with SBP of ≥160 mmHg. Kind of series: Dyspnea assessment by 100 mm VAS, VMAC scale and PDA. The class given is in vivo, human. As for the experimental part: Dyspnea was assessed by a 100 mm VAS, in which a score of 0 was “no dyspnea” and a score of 100 represented “worst possible dyspnea.” Dyspnea was evaluated immediately prior to study drug administration, and at 15, 30, 45, 60, 120, 360 and 720 minutes afterward. In addition, the Vasodilation in the Management of Acute Congestive Heart Failure (VMAC) scale, a relative 7 point Likert score, and the Provocative Dyspnea Assessment (PDA) (Pang et al, Eur Heart J2008, 29) were both performed in the seated and supine positions and recorded.

Series [2] shares this test system. Kind of series: Randomized open label 13-center trial: blood pressure control, clevidipine vs standard of care. The class given is in vivo, human. As for the experimental part:
(§1) A randomized open label 13-center trial enrolled AHF patients with SBP of ≥160 mmHg, sitting dyspnea score ≥50 on a 100 mm VAS, and a physician's clinical diagnosis of AHF with pulmonary congestion by chest auscultation.
(§2) If the target blood pressure range was not reached within 30 minutes, or not maintained thereafter, alternative antihypertensive agents were allowed per physician discretion, with or without continuation of the study drug.
(§3) Two populations were analyzed. The “safety” population included all patients receiving any study drug, and was used for all safety analyses.

The conditions of series [3]: in vivo; cited from earlier work.
Series [4] has as its system AHF patients with SBP of ≥160 mmHg. Kind of series: Safety analyses of the AHF trial (hypotension, adverse events, deaths). The method, then: as §1, §2, §3
Historical ejection fraction data was recorded when available.

The mark [5] stands for this setting: AHF population, 30-minute target SBP range.

SMILES strings stand for the structures.

Consider `CCCC(=O)OCOC(=O)C1=C(C)NC(C)=C(C(=O)OC)C1c1cccc(Cl)c1Cl` (stereo not drawn) [clevidipine], for which the “Mean VAS decrease from baseline” value in series [1] (at 45 minutes, 100 mm dyspnea VAS) is 37.1 mm. The “Effect on dyspnea compared with nicardipine” value in series [1] (in vivo) was “significantly greater than the effect of nicardipine on dyspnea”. Moreover, in series [1] (vs SOC), the “VAS dyspnea scores over time (treatment×time effect)” value is “decreased more from baseline with clevidipine than SOC”; the “VMAC and PDA scores” value is on record as “non-significant trends toward greater improvement with clevidipine than SOC”. Also, in series [2] (setting [5]), the “Target blood pressure range achieved, % of patients” value was found to be 70.5% and the “Target blood pressure range achieved, patients/total” value was 31/44. In series [2] (in vivo), the “AUC above the target blood pressure, median” value came to 327 mmHg×min/h; the “AUC below the target blood pressure, median” value was 0 mmHg×min/h; the “AUC outside the target blood pressure, median” value came to 379 mmHg×min/h; the “Patients requiring additional antihypertensives” value is on record as 15.9%. Besides, the “Rate of being within, but not below, the target blood pressure range” value in series [2] (in vivo) was 45.5%. In addition, the “Median time to reach target blood pressure range” value in series [2] (patients in which the target range was achieved) is 15 min. Besides, the Half-life result in series [3] is “about 1 minute”. Also, in series [4] (human, in vivo), the “Duration of SBP <90 mmHg” value amounted to 3.3 min; the “Patients who exceeded their lower target blood pressure range limit” value amounted to 15 patients; the “Patients with at least one related TEAE, %” value was 9.8%; the “Proportion of time that SBP was <90 mmHg while on study drug” value was 2.5%. For the same compound, in series [4] (human, in vivo), the “SBP <90 mmHg occurred, % of patients” value was determined as 5.9%; the “SBP <90 mmHg occurred, patients” value is reported as 3 patients; the “Study drug related TEAE: Abdominal discomfort, %” value stood at 2.0%; the “Study drug related TEAE: Abdominal pain, %” value was determined as 2.0%. For the same compound, in series [4] (human, in vivo), the “Study drug related TEAE: Blurred vision, %” value is listed as 2.0%; the “Study drug related TEAE: Flushing, %” value was 2.0%; the “Study drug related TEAE: Headache, %” value worked out at 2.0%; the “Study drug related TEAE: Myalgia, %” value is listed as 2.0%. Further, in series [4] (human, in vivo), the “Study drug related TEAE: Nausea, %” value was determined as 2.0% and the “Study drug related TEAE: Ventricular tachycardia, %” value came to 2.0%. Besides, the “Incidence of serious adverse events” value in series [4] (human, in vivo, 30 days) turned out to be 23.5%. In series [4] (in vivo), the “Mean by which the lower target limit was exceeded” value was found to be 8.7 mmHg; the “Mean heart rate change from baseline to 30 minutes” value is 2.6 bpm; the “Symptomatic hypotension, patients” value was “one”. Moreover, in series [4] (none during study drug administration), the “Patients expired within 30 days of treatment” value is 3 patients.

Take `O=[N+]([O-])OCC(CO[N+](=O)[O-])O[N+](=O)[O-]` [nitroglycerin]: the “Speed of VAS improvement, SOC subsets” value in series [1] (FIG. 2D, compared with clevidipine) is on record as “neither nitroglycerin nor nicardipine improved VAS as quickly as clevidipine”.
